# “Also recorded” adds a separate entry of the source.
# Legend:
# Format in all cases: in vivo, mouse (C57BL/6J male, 60% HFD DIO)
# [1] = Example 1: food intake within 24 h; settings: during administration period, vs model control group
# Description: (§1) After 5-week-old C57BL/6J male mice were acclimatized for 1 week, the weight of each mouse was weighed, and the mice were randomly divided into a control group and a model group by taking the weight as a main index, where 12 mice in the control group were fed with common feed (CD), and the mice in the remaining model group were fed with 60% high-fat feed (60% HFD) for 10-12 weeks to construct a DIO obesity model, with the average body weight being not less than 40 g. The mice fed with 60% HFD were grabbed and acclimatized with a solvent for 3 days, where the acclimatization with a solvent was performed by oral gavage of 0.5% CMC-Na, twice daily.
# The food intake, the body weight, the body fat ratio, and the insulin level of the mice were respectively measured, followed by fasting blood glucose level, and the mice were randomly grouped according to Table 3 by taking the body weight as an index, and the remaining ungrouped mice were euthanized. After grouping, each group of mice was administered according to Table 3, the day of administration was defined as DO, and the administration volume of each drug was determined based on the results obtained by the calculation of 5 μL/g× mouse body weight (g). […]
# [2] = Example 1: lean mass by MRI after 25 days
# Description: as §1
# (§2) The food intake, the body weight, the body fat ratio, and the insulin level of the mice were respectively measured, followed by fasting blood glucose level, and the mice were randomly grouped according to Table 3 by taking the body weight as an index, and the remaining ungrouped mice were euthanized. After grouping, each group of mice was administered according to Table 3, the day of administration was defined as DO, and the administration volume of each drug was determined based on the results obtained by the calculation of 5 μL/g× mouse body weight (g).
# (§3) For the combined administration group, the total administration volume was the sum of the administration volumes of two single drugs, and the administration sequence and the administration time were kept consistent at each administration. The mice were continuously fed with high-fat feed during the administration period until the administration was finished. During administration, 2 food intakes were measured per week (difference in feed weights at an interval of 24 h was measured); each group of mice was weighed once daily; postprandial blood glucose levels were measured weekly; blood was collected from the tail tip on day 6 and day 20, respectively, so as to measure fasting blood glucose levels once (blood was collected after fasting from 8:00 am to […]); on day 25 of administration, the body fat ratio and the lean mass of each group of mice were measured by MRI (the measurement period was kept consistent with that before grouping); after 4 weeks of administration intervention (day 28), each group of mice was fasted for 6 h and subjected to OGTT (0 min, 15 min, 30 min, 60 min, 90 min, 120 min) to detect their blood glucose levels, and meanwhile subjected to blood sampling via submaxillary vein (0 min, 15 min, 30 min, about 30 μL of blood sampled each time), and then the blood plasma was separated for detecting the insulin level by ELISA, where the separated blood plasma was more than 10 μL; the next day (D29) at the end of administration was set as the test endpoint, and the mice were fasted for 6 h in the morning and subjected to fasting blood glucose level measurement; subsequently, the mice were euthanized with CO2, blood was collected from the heart of each mouse for analysis, and each group of mice was dissected; the liver and subcutaneous, epididymal and mesenteric fat was collected, photographed and weighed, respectively.
# After 25 days of administration, the body weight, the Lean weight and the lean ratio of each animal in groups G1 to G5 were measured and averaged for each group, and the results are shown in Table 7 below, FIG. 9 and FIG. 10.
# [3] = Example 1: body fat mass by MRI after 25 days
# Description: as §1, §2, §3
# After 25 days of administration, the body weight, the body fat mass and the body fat ratio of each animal in groups G1 to G6 were measured and averaged for each group, and the results are shown in Table 5 below, FIG. 4 and FIG. 5.
# [4] = Example 1: oral glucose tolerance test (OGTT), blood glucose; settings: for OGTT blood glucose level: HTD1801 200 mpk, empagliflozin 10 mpk (reduced after week 2), semaglutide 10 nmol/kg s.c. Q3D
# Description: as §1, §2, §3
# [5] = Example 1: body weight and body weight change rate, combined administration of HTD1801 and empagliflozin in DIO obesity model; settings: semaglutide 10 nmol/kg s.c. Q3D
# Description: as §1, §2, §3
# [6] = Example 1: fasting blood glucose level; settings: semaglutide 10 nmol/kg s.c. Q3D
# Description: as §1, §2
# For the combined administration group, the total administration volume was the sum of the administration volumes of two single drugs, and the administration sequence and the administration time were kept consistent at each administration. The mice were continuously fed with high-fat feed during the administration period until the administration was finished. […]
# After 20 days of administration, fasting blood glucose level results were measured for each group of animals and are shown in Table 8 below and FIG. 11.
# [7] = mean, after 25 days of administration, HTD1801 200 mpk, empagliflozin 10 mpk in last 2 weeks (300/15 mpk before)
# [8] = mean, after 25 days of administration, HTD1801 200 mpk, empagliflozin 10 mpk in last 2 weeks (300/15 mpk before), semaglutide 10 nmol/kg s.c. Q3D
# [9] = day 0 (baseline), HTD1801 300 mpk, empagliflozin 15 mpk gavage QD
# [10] = day 1, HTD1801 300 mpk, empagliflozin 15 mpk gavage QD
# [11] = day 2, HTD1801 300 mpk, empagliflozin 15 mpk gavage QD
# [12] = day 3, HTD1801 300 mpk, empagliflozin 15 mpk gavage QD
# [13] = day 4, HTD1801 300 mpk, empagliflozin 15 mpk gavage QD
# [14] = day 5, HTD1801 300 mpk, empagliflozin 15 mpk gavage QD
# [15] = day 6, HTD1801 300 mpk, empagliflozin 15 mpk gavage QD
# [16] = day 7, HTD1801 300 mpk, empagliflozin 15 mpk gavage QD
# [17] = day 8, HTD1801 300 mpk, empagliflozin 15 mpk gavage QD
# [18] = day 9, HTD1801 300 mpk, empagliflozin 15 mpk gavage QD
# [19] = day 10, HTD1801 300 mpk, empagliflozin 15 mpk gavage QD
# [20] = day 11, HTD1801 300 mpk, empagliflozin 15 mpk gavage QD
# [21] = day 12, HTD1801 300 mpk, empagliflozin 15 mpk gavage QD
# [22] = day 13, HTD1801 300 mpk, empagliflozin 15 mpk gavage QD
# [23] = day 14, HTD1801 300 mpk, empagliflozin 15 mpk gavage QD
# [24] = day 15, HTD1801 200 mpk, empagliflozin 10 mpk (reduced after week 2) gavage QD
# [25] = day 16, HTD1801 200 mpk, empagliflozin 10 mpk (reduced after week 2) gavage QD
# [26] = day 17, HTD1801 200 mpk, empagliflozin 10 mpk (reduced after week 2) gavage QD
# [27] = day 18, HTD1801 200 mpk, empagliflozin 10 mpk (reduced after week 2) gavage QD
# [28] = day 19, HTD1801 200 mpk, empagliflozin 10 mpk (reduced after week 2) gavage QD
# [29] = day 20, HTD1801 200 mpk, empagliflozin 10 mpk (reduced after week 2) gavage QD
# [30] = day 21, HTD1801 200 mpk, empagliflozin 10 mpk (reduced after week 2) gavage QD
# [31] = day 22, HTD1801 200 mpk, empagliflozin 10 mpk (reduced after week 2) gavage QD
# [32] = day 23, HTD1801 200 mpk, empagliflozin 10 mpk (reduced after week 2) gavage QD
# [33] = day 24, HTD1801 200 mpk, empagliflozin 10 mpk (reduced after week 2) gavage QD
# [34] = day 25, HTD1801 200 mpk, empagliflozin 10 mpk (reduced after week 2) gavage QD
# [35] = day 26, HTD1801 200 mpk, empagliflozin 10 mpk (reduced after week 2) gavage QD
# [36] = day 27, HTD1801 200 mpk, empagliflozin 10 mpk (reduced after week 2) gavage QD
# [37] = day 28, HTD1801 200 mpk, empagliflozin 10 mpk (reduced after week 2) gavage QD
compound,measurement,setting,value
"OC[C@H]1O[C@@H](c2ccc(Cl)c(Cc3ccc(O[C@H]4CCOC4)cc3)c2)[C@H](O)[C@@H](O)[C@@H]1O [Empagliflozin, empagliflozin]",food intake within 24 h (in words),[1],comparable to that of the model control group
same,lean mass (in words),"[2]; after 25 days, relative to model control group G2",decreased
same,Body weight,"[2]; mean, after 25 days of administration (Table 7), HTD1801 200 mpk, empagliflozin 10 mpk in last 2 weeks (300/15 mpk before)",47.53 g
same,Lean (lean mass),[2]; [7],5.17 g
same,Lean ratio,[2]; [7],10.92%
same,body fat mass and body fat ratio (in words),"[3]; after 25 days, relative to control group G2",increased
same,Body weight,"[3]; mean, after 25 days of administration (Table 5), HTD1801 200 mpk, empagliflozin 10 mpk in last 2 weeks (300/15 mpk before), semaglutide 10 nmol/kg s.c. Q3D",47.53 g
same,Body fat ratio,[3]; [8],49.13%
same,Fat (body fat mass),[3]; [8],23.36 g
same,OGTT blood glucose level,"[4]; day 28, 0 min",10.97 mmol/L
same,OGTT blood glucose level,"[4]; day 28, 15 min",19.60 mmol/L
same,OGTT blood glucose level,"[4]; day 28, 30 min",18.90 mmol/L
same,OGTT blood glucose level,"[4]; day 28, 60 min",18.18 mmol/L
same,OGTT blood glucose level,"[4]; day 28, 90 min",14.54 mmol/L
same,OGTT blood glucose level,"[4]; day 28, 120 min (head printed ""12 0min"")",15.48 mmol/L
same,total blood glucose level in OGTT (in words),"[4]; day 28, relative to model control group G2",comparable
same,body weight change (in words),"[5]; after 14 days, reduced dose: HTD1801 200 mpk, empagliflozin 10 mpk",slowly increased
same,Body weight (mean),[5]; [9],42.9 g
same,Body weight change rate,[5]; [9],0.0%
same,Body weight (mean),[5]; [10],42.8 g
same,Body weight change rate,[5]; [10],−0.2%
same,Body weight (mean),[5]; [11],42.9 g
same,Body weight change rate,[5]; [11],0.1%
same,Body weight (mean),[5]; [12],42.8 g
same,Body weight change rate,[5]; [12],−0.1%
same,Body weight (mean),[5]; [13],42.9 g
same,Body weight change rate,[5]; [13],0.0%
same,Body weight (mean),[5]; [14],43.0 g
same,Body weight change rate,[5]; [14],0.4%
same,Body weight (mean),[5]; [15],42.9 g
same,Body weight change rate,[5]; [15],0.1%
same,Body weight (mean),[5]; [16],42.6 g
same,Body weight change rate,[5]; [16],−0.5%
same,Body weight (mean),[5]; [17],42.7 g
same,Body weight change rate,[5]; [17],−0.4%
same,Body weight (mean),[5]; [18],43.1 g
same,Body weight change rate,[5]; [18],0.5%
same,Body weight (mean),[5]; [19],43.2 g
same,Body weight change rate,[5]; [19],0.8%
same,Body weight (mean),[5]; [20],43.3 g
same,Body weight change rate,[5]; [20],1.1%
same,Body weight (mean),[5]; [21],43.7 g
same,Body weight change rate,[5]; [21],1.9%
same,Body weight (mean),[5]; [22],43.6 g
same,Body weight change rate,[5]; [22],1.8%
same,Body weight (mean),[5]; [23],43.7 g
same,Body weight change rate,[5]; [23],2.0%
same,Body weight (mean),[5]; [24],43.5 g
same,Body weight change rate,[5]; [24],1.5%
same,Body weight (mean),[5]; [25],43.8 g
same,Body weight change rate,[5]; [25],2.3%
same,Body weight (mean),[5]; [26],44.1 g
same,Body weight change rate,[5]; [26],2.9%
same,Body weight (mean),[5]; [27],44.5 g
same,Body weight change rate,[5]; [27],3.9%
same,Body weight (mean),[5]; [28],44.8 g
same,Body weight change rate,[5]; [28],4.4%
same,Body weight (mean),[5]; [29],45.1 g
same,Body weight change rate,[5]; [29],5.2%
same,Body weight (mean),[5]; [30],45.5 g
same,Body weight change rate,[5]; [30],6.2%
same,Body weight (mean),[5]; [31],46.0 g
same,Body weight change rate,[5]; [31],7.3%
same,Body weight (mean),[5]; [32],46.4 g
same,Body weight change rate,[5]; [32],8.3%
same,Body weight (mean),[5]; [33],46.5 g
same,Body weight change rate,[5]; [33],8.5%
same,Body weight (mean),[5]; [34],46.5 g
same,Body weight change rate,[5]; [34],8.4%
same,Body weight (mean),[5]; [35],46.3 g
same,Body weight change rate,[5]; [35],8.1%
same,Body weight (mean),[5]; [36],46.7 g
same,Body weight change rate,[5]; [36],8.9%
same,Body weight (mean),[5]; [37],46.5 g
same,Body weight change rate,[5]; [37],8.4%
same,body weight change / weight loss effect (in words),"[5]; within 14 days, HTD1801 300 mpk, empagliflozin 15 mpk gavage QD",basically unchanged in week 1 and gradually increased; also recorded: could not achieve the weight loss effect
same,Mean fasting blood glucose level,[6]; [15],7.8 mmol/L
same,Mean fasting blood glucose level,"[6]; day 20, HTD1801 200 mpk, empagliflozin 10 mpk (reduced after week 2)",7.9 mmol/L
